Measured values taken from patent US20230346826A1, “COMPOSITIONS AND METHODS FOR TREATING AND/OR PREVENTING AUTOIMMUNE DISORDERS” (The Regents of the University of Michigan, priority 2020, published 2023).

B1: OVA: albumin (OVA) protein, unformulated allergen given orally as OIT comparator (protein, UniProt P01012 2-386, looked up)
Ovalbumin: GSIGAASMEFCFDVFKELKVHHANENIFYCPIAIMSALAMVYLGAKDSTRTQINKVVRFDKLPGFGDSIEAQCGTSVNVHSSLRDILNQITKPNDVYSFSLASRLYAEERYPILPEYLQCVKELYRGGLEPINFQTAADQARELINSWVESQTNGIIRNVLQPSSVDSQTAMVLVNAIVFKGLWEKAFKDEDTQAMPFRVTEQESKPVQMMYQIGLFRVASMASEKMKILELPFASGTMSMLVLLPDEVSGLEQLESIINFEKLTEWTSSNVMEERKIKVYLPRMKMEEKYNLTSVLMAMGITDVFSSSANLSGISSAESLKISQAVHAAHAEINEAGREVVGSAEAGVDAASVSEEFRADHPFLFCIKHIATNAVLFFGRCVSP

Experiments:
[1] = tested on: C57BL/6 mice given 3% DSS (acute colitis); experiment: DSS-induced acute colitis model; assay type: in vivo; conditions: 3% DSS for 6 days, oral gavage
Source text: We examined whether oral administration of inulin gel loaded with an immune tolerizing drug can exert therapeutic efficacy against colitis. Mice were given 3% DSS in drinking water for 6 days to induce acute colitis. Starting day 0, mice were also orally gavaged with either PBS, an Ahr ligand, indole-3-aldehyde (IALD), or inulin gel formulated with IALD (inulin gel + IALD) (FIG. 5A).
Method: Six-week-old female C57BL/6 mice were acclimatized for 2 weeks before the start of the study. To induce colitis, mice were given 3% DSS (40 kDa; Alfa Aesar) supplemented in the drinking water for 6 days, followed by giving normal water. Inulin gel + IALD, IALD or PBS was orally gavaged into mice on predetermined days. The inulin gel + IALD was prepared by dissolving 300 mg of inulin from chicory (Sigma-Aldrich) in 0.9 ml deionized water and 0.1 ml IALD solution (50 mg/mL, DMSO). The inulin solution was thoroughly mixed with IALD solution by vortex and was heated to 70° C. for 5 min. The formulation was kept at room temperature for 12 h for gelation. The IALD was prepared similarly without adding the inulin. Bodyweight were measured daily over the experimental period. On day 9, mice were sacrificed, and the entire colon was excised. Colon length and the cecum weight was measured.

[2] = tested on: BABL/c mice sensitized with OVA/Alum (OVA allergy); assay type: in vivo; conditions: after the 3rd OVA challenge; escalated dose OIT
Procedure: To simulate the widely used therapeutic plan in clinic, we next provided the escalated dose of OVA in OIT treatment (FIG. 2a).
Preparation and characterization of inulin gel, PE or OVA loaded inulin gel. For OVA-related study, 495 mg of inulin from chicory (Sigma-Aldrich) was dissolved in 1.35 mL PBS and heated for 5 min. OVA (Sigma-Aldrich) was added right after cool-down of inulin. For PE-related study, 300 mg of inulin from chicory (Sigma-Aldrich) was dissolved in 0.9 mL deionized water, after heating for 5 min, 8 mg of PE was added right after cool-down. Samples were kept at 4° C. for 24 h. […] The content of protein in peanut extraction (around 20%) was determined by BCA assay.
In vivo oral sensitization, immunotherapy, and challenge. […] Body weight before all times of i.g. challenge were recorded, while the body temperature in the last time of i.g. challenge was measured. […] On day 73, mice were i.p. injected with 125 µg PE and the body temperature was recorded at preset times via rectal temperature probe.
Assessment of hypersensitivity reactions and diarrhea. Anaphylactic symptoms were evaluated between 30 to 50 minutes after i.p. challenge of PE (125 µg/dose) or i.g. challenge of OVA (50 mg/dose). […] For OVA study, mice with profuse liquid stool up to 1 h after i.g. challenge were recorded as diarrhea-positive animals. […]
Intestinal mast cell quantification. […]

Molecule | bodyweight loss ([1]; daily bodyweight for 9 d) | shortening of the colon length ([1]; day 9) | death after OVA challenge [2]
O=Cc1c[nH]c2ccccc12 [IALD, indole-3-aldehyde] | significant bodyweight loss | shortening of the colon length | 
B1 |  |  | Some mice in the OVA group died
